Several values for one entry are separate records, joined by “and”; a condition that tells them apart may be missing. Equal entries are not always repeated.
system: P. falciparum 3D7 growth, pLDH absorbance; test: blood-stage malaria parasite growth potency – strain 3D7, dose response (AID 2305)

Point of comparison: N=C(N)c1cccc(-c2cc(-c3cccc(C(=N)N)c3)on2)c1, IC50 90 nM. Against it:
- O=C(c1c(-c2[nH]c3ccccc3c2C(=O)C(F)(F)F)[nH]c2ccccc12)C(F)(F)F — 8.3-fold higher, 750 nM
- COc1cc(CN2CCC(N3CCc4cc(NC(=O)c5cc(C)on5)ccc43)C2)ccc1F (configuration not stated) — 6.8-fold higher, 610 nM
- O=C(C=Cc1cn(-c2ccccc2)nc1-c1cccs1)N1CCN(c2ccncc2)CC1 — 8-fold higher, 720 nM
- O=C(Cc1ccc(NC(=O)c2ccc(O)c(-c3cccc([N+](=O)[O-])c3)c2)cc1)NCCN1CCCCC1 — 10-fold higher, 900 nM
- CNc1ccc(CNCc2cccc(-c3ccc(-c4nc5ccc(C(F)(F)F)cc5[nH]4)cc3)c2)cc1 — within 1.5-fold, 110 nM
- O=C(/C=C/c1ccc2ccccc2c1)NCCCCCN1CCC(c2c[nH]c3ccccc23)CC1 — 14-fold higher, 1230 nM
- Cc1cc2c(cc1C(F)(F)F)N(C(=O)Nc1cccc(C(=O)NC3CCN(Cc4ccccc4)CC3)c1)CC2 — 10-fold higher, 910 nM
- N#Cc1cncc(-c2nc3c(N4CCC(N5CCCC5)CC4)cccc3n2CCNCc2ccccc2)c1 — 9.7-fold higher, 870 nM
- CC(Cc1ccc(Oc2ccc(Cl)cc2)cc1)NCC(O)c1cccc(Cl)c1 (configuration not stated) — 8.2-fold higher, 740 nM
- CCN(CC)CCNC(=O)/C(=C/C=C/c1cc2cc(Cl)c(Cl)cc2[nH]1)OC — 10-fold higher, 930 nM
- CCOC(=O)c1ccc(N2CCN(c3cc(Cl)ccc3C)CC2)c(NC(=O)Nc2ccc(Cl)c(Cl)c2)c1 — 6.4-fold higher, 580 nM
- CC(C)C[C@@H](/C=N/N1CCOC1=O)NC(=O)[C@H](CC(C)C)NC(=O)c1ccc(F)cc1 — 13-fold higher, 1170 nM
- Cc1cc(NCCC(=O)NCCc2ccccc2)nc(NCCc2ccc(F)cc2)n1 — 12-fold higher, 1080 nM
- NC(=O)c1cccc(-n2ccc3cc(CNC4Cc5ccccc5C4)ccc32)c1 — 13-fold higher, 1130 nM
- Cc1cc(N2CCCC2)nc(Nc2ccc(NC(=O)Cc3ccccc3)cc2)n1 — 6.8-fold higher, 610 nM
- COc1ccc(/C=C/C(=O)N2CCc3cc4nccc(N5CCN6CCC[C@H]6C5)c4cc32)cc1 — 7.1-fold higher, 640 nM
- CS(=O)(=O)c1cccc(-c2cnc(N)c3cc(-c4ccc5c(c4)OCO5)ccc23)c1 — 12-fold higher, 1040 nM
- COc1ccccc1-c1csc(C(=O)NCC2CCN(Cc3ccc(C(C)C)cc3)C2)c1 (configuration not stated) — 15-fold higher, 1350 nM
- CC(C)(Oc1c(C2CCN(CCCCNC(=O)c3ccc(-c4ccc(Cl)cc4)cc3)CC2)ccc2c1CCCC2)C(N)=O — 12-fold higher, 1090 nM
- CC(=O)Nc1ccc(S(=O)(=O)Nc2c(C)cc(Cc3cnc(N)nc3N)cc2C)cc1 — 11-fold higher, 1000 nM
- O=C(Nc1ccc(N2CCNCC2)nc1)c1oc(-c2ccccc2)nc1C(F)(F)F — 11-fold higher, 980 nM
- COc1cc2c(cc1OC)C(C(=O)Nc1ccc(C(F)(F)F)cc1)C(c1cccs1)N(C)C2=O (configuration not stated) — 1.8-fold higher, 160 nM
- CC1CC(C)CN(CCCNc2ccc(C(=O)Nc3ccc(C(F)(F)F)cc3)cc2[N+](=O)[O-])C1 (configuration not stated) — 2.2-fold higher, 200 nM
- COC[C@H]1CCCN1Cc1ccc(-c2ccc(-c3nc4ccccc4[nH]3)s2)cc1 — 11-fold higher, 1000 nM
- CN(C)Cc1cccc(-c2ccc(NC(=O)c3ccc4c(=O)n(CCN5CCCCC5)cnc4c3)cc2)c1 — 7.2-fold higher, 650 nM
- CCc1c(CCNCCCCCCNCCc2ccc(OC)c(OC)c2CC)ccc(OC)c1OC — 8.1-fold higher, 730 nM
- C#CC[C@@H](NC(N)=O)C(=O)O — 2.1-fold higher, 190 nM
- N=C(N)c1cc(Br)cc(NC(=O)Nc2cc(Br)cc(C(=N)N)c2)c1 — 9.1-fold higher, 820 nM
- CC(=O)NC1=NC(C)(C)N(OCCCOc2ccc(Cl)c(Cl)c2)C(NC(C)=O)=N1 — 9-fold lower, 10 nM
- Cc1cccc2[nH]c(-c3ccc(-c4ccc(NC(=O)Nc5ccc(F)c(F)c5F)cc4)s3)nc12 — 2-fold higher, 180 nM
- FC(F)(F)c1ccc(-c2ccc(CNC3CCN(CCN4CCOCC4)CC3)cc2)cc1 — 8.4-fold higher, 760 nM
- O=C(c1ccc(O)c(-c2cc(Cl)cc(Cl)c2)c1)N(CCO)CCO — 10-fold higher, 910 nM
- COc1ccc(CCNCc2ccc3nc(N)cc(C)c3c2)cc1 — 2.3-fold higher, 210 nM
- COc1ccc(CC(=O)NC2CCN(c3ccnc4cc(Cl)ccc34)C2)cc1 (configuration not stated) — 2.7-fold higher, 240 nM
- NS(=O)(=O)c1cccc(Nc2nc(N[C@@H]3CCNC3)nc3cc[nH]c(=O)c23)c1 — 10-fold higher, 940 nM
- Cc1cccc2[nH]c(-c3ccc(-c4cccc(NCc5cn6cccnc6n5)c4)cc3)nc12 — 8.8-fold higher, 790 nM
- Oc1ccc(CN2CC[C@@H](N3CCN(CCc4ccccc4)CC3)[C@H](O)C2)cc1Cl — 9.7-fold higher, 870 nM
- Fc1ccc2nc(-c3ccc(-c4ccc(CN5CCN(CCN6CCOCC6)CC5)cc4)cc3)[nH]c2c1 — 2-fold higher, 180 nM
- O=C(NCC1CCN(Cc2cccc(F)c2)C1)c1cc(-c2cccc(C(F)(F)F)c2)cs1 (configuration not stated) — 11-fold higher, 990 nM
- CN1CCN(Cc2ccc(-c3ccc4c(Nc5ccc(Oc6ccccn6)cc5)ccnc4c3)o2)CC1 — 1.6-fold higher, 140 nM
- COc1cc(OC)cc(-c2nn(-c3ccc([N+](=O)[O-])cc3Cl)c(=S)n2Cc2ccco2)c1 — 9.3-fold higher, 840 nM
- CC(C)NCC(O)Cn1c2ccc(Br)cc2c2cc(Br)ccc21 (configuration not stated) — 5-fold higher, 450 nM
- CC(=O)NC(c1cccs1)c1cc(Cl)c2cccnc2c1O (configuration not stated) — 3.6-fold higher, 320 nM
- Cc1[nH]c2ccc(-c3ccccc3)cc2c(=O)c1Br — 1.8-fold higher, 160 nM
- CCC1CCCCN1S(=O)(=O)c1ccc(NC(=O)c2cc(C)on2)cc1 (configuration not stated) — 14-fold higher, 1240 nM
- Cc1ccc(NC(=O)c2cccc(CN3CCCN(Cc4cccc(O)c4)CC3)c2)cc1F — 7.9-fold higher, 710 nM
- O=C(c1cc(C(=O)NCc2ccc(Cl)cc2)c(=O)n(Cc2ccc(Cl)cc2)c1)c1cc(Cl)ccc1O — 16-fold higher, 1400 nM
- CCCC[C@@H](C(=O)NCc1ccccc1C(F)(F)F)N1C(=O)CCC1C(=O)Nc1ccc([N+](=O)[O-])cc1 (some centres not stated) — 9.4-fold higher, 850 nM
- CC(=O)N(Cc1nc(-c2cc(C(F)(F)F)cc(C(F)(F)F)c2)cs1)c1c(C)cccc1C — within 1.5-fold, 110 nM
- CC1=C(C(=O)OC(C)C)C(c2ccccc2Cl)C2=C(CC(c3ccccc3)CC2=O)N1 (configuration not stated) — 9.4-fold higher, 850 nM
- O=C(c1ccc(Cl)cc1)N1CCCC(C(=O)N(Cc2nnc(-c3ccccc3Cl)o2)C2CC2)C1 (configuration not stated) — 2.6-fold higher, 230 nM
- CN(N=Cc1ccccc1)C(N)=NCCCC#Cc1cccc(CN2CCCC2)c1 — 20-fold higher, 1790 nM
- CC1CN(Cc2cccc(F)c2)CCN1c1ccc(NC(=O)c2ccc(F)cc2)cc1 (configuration not stated) — 6.4-fold higher, 580 nM
- O=C(NC1CCC(CN2CCC(c3c[nH]c4ccccc34)CC2)CC1)c1cnn(-c2ccccc2)c1-c1ccccc1Cl (configuration not stated) — 2-fold higher, 180 nM
- COc1cc(OC)cc(-c2nnc(Sc3ccc(C#N)c([N+](=O)[O-])c3)n2C)c1 — 10-fold higher, 940 nM
- O=C(Nc1ccc(CN2CCC(c3c[nH]c4ccc(O)cc34)CC2)cc1)c1ccc(-c2ccccc2)cc1 — 2.8-fold higher, 250 nM
- CN1CCCC1CCNc1ncc2c(-c3ccc(NC(=O)Nc4cc(C(F)(F)F)ccc4F)cc3)nn(C)c2n1 (configuration not stated) — 3.8-fold higher, 340 nM
- Cc1c(C)n(C2CCCCC2)c2ncnc(OC3CCN(CC(=O)N4CCCC4)CC3)c12 — 16-fold higher, 1450 nM
- CC(C)(C)CNc1noc(-c2sccc2Br)n1 — 12-fold higher, 1120 nM
- Cc1cccc(CN2CCCN(Cc3ccc(C(=O)Nc4ccc(C)c(F)c4)cc3)CC2)c1 — 12-fold higher, 1060 nM
- CCCCNc1c(C(=O)OCC)c(C)nc2c1[nH]c1ccccc12 — 7.6-fold higher, 680 nM
- Cc1cc(-c2ccc3c(c2)CCN(CCC2CCC(NC(=O)/C=C/c4ccccc4F)CC2)CC3)on1 (configuration not stated) — 9-fold higher, 810 nM
- Cc1ccc(CNC(=O)c2cnc(N3CCN(c4ccncc4)CC3)c(Cl)c2)cc1 — 14-fold higher, 1290 nM
- CSc1ccc(NC(=O)Nc2cc(C)nc3ccccc23)cc1 — 7.9-fold higher, 710 nM
- Cc1ccc(C2CCN(CCCCNC(=O)c3ccc(-c4ccc(C#N)cc4)cc3)CC2)c(O)c1 — 3.2-fold higher, 290 nM
- COc1cc(-c2nc(C(C)(C)CN)[nH]c2-c2ccncc2)ccc1Br — 8.6-fold higher, 770 nM
- Cc1ccc(C(=O)Nc2cc(S(=O)(=O)N3CCCC3)ccc2OCC(F)(F)F)cc1 — 9.4-fold higher, 850 nM
- CCOCc1cnc(C)nc1CNC(=O)c1c(C)[nH]c2ccc(C)cc12 — 11-fold higher, 1010 nM
- O=C(CSc1n[nH]c(=O)n1Cc1ccccc1)Nc1ccccc1-c1ccccc1 — 11-fold higher, 950 nM
- Cc1nc(C)c(CC(=O)Nc2ccc(-c3cccc(-c4nc5c(C)cccc5[nH]4)c3)cc2)s1 — 6.7-fold higher, 600 nM
- O=C(Nc1cccc(-c2ccc(-c3nc4ccc(C(F)(F)F)cc4[nH]3)cc2)c1)c1csnn1 — 7.7-fold higher, 690 nM
- COc1ccc2nccc(N3CCN(CCNCc4ccc5c(n4)NC(=O)CO5)CC3)c2n1 — 9.8-fold higher, 880 nM
- CCN(CC)S(=O)(=O)c1ccc(C(C)NC(=O)c2ccccc2COc2ccccc2)cc1 (configuration not stated) — 3.7-fold higher, 330 nM
- Cc1cccc2[nH]c(-c3ccc(-c4cccc(CN5CCC(C(N)=O)CC5)c4)s3)nc12 — 14-fold higher, 1260 nM
- CC(C)CNCc1cccc(-c2cccc(CN(C(=O)Nc3ccccc3)C3CCN(Cc4ccccc4)CC3)c2)c1 — 4.1-fold higher, 370 nM
- Cc1cc(N[C@@H](CC(C)C)C(=O)NCc2cccs2)nc(Nc2ccccc2)n1 — 13-fold higher, 1130 nM
- O=C(Nc1ccc2c(c1)CCC2)N[C@H]1CCN(CCCCCNC(=O)[C@@H]2C[C@H]2c2ccc(Cl)c(Cl)c2)C1 — 12-fold higher, 1080 nM
- Cc1cc2nc(/N=C(\N)NC(=O)NC3CCCCC3)nc(C)c2cc1C — 8.3-fold higher, 750 nM
- O=C(/C=C/c1ccc(Cl)c(Cl)c1)NCCCCCN1CCCC(C(=O)Nc2ccc(F)c(Cl)c2)C1 (configuration not stated) — 10-fold higher, 900 nM
- Cc1cc(N(C)C)nc(Nc2ccc(NC(=O)CCc3ccccc3)cc2)n1 — 9.4-fold higher, 850 nM
- COC(=O)c1cccc(NC(=O)NC2CCN(c3ccnc(Nc4ccc(OC)cc4)n3)C2)c1 (configuration not stated) — 5.2-fold higher, 470 nM
- NC1CCCN(Cc2ccc(-c3cccc(-c4nc5ccc(F)cc5[nH]4)c3)cc2)C1 (configuration not stated) — 7.1-fold higher, 640 nM
- CC(C)NCc1ccc(-c2ccc(NC(=O)c3cccc(C#N)c3)cc2)cc1 — 7.2-fold higher, 650 nM
- O=C(c1cccc(-c2ccc(-c3nc4ccc(F)cc4[nH]3)s2)c1)N1CCCCC1CN1CCC(O)C1 (configuration not stated) — 8-fold higher, 720 nM
- O=C(Cn1c(CCc2cccc(F)c2F)nc(=O)c2ccccc21)N(Cc1ccc(-c2ccc(C(F)(F)F)cc2)cc1)C1CCN(C2=NCCS2)CC1 — 15-fold higher, 1330 nM
- COc1cc2c(Nc3ccc(NC(=O)c4ccccc4)cc3)ncnc2cc1OCCCN1CCOCC1 — 7.2-fold higher, 650 nM
- O=C(Cc1ccccc1)NC1(c2ccccc2)CCN(CCc2c[nH]c3ccc(F)cc23)CC1 — 9.8-fold higher, 880 nM
- O=C(Nc1cccnc1)c1cn(-c2ccccc2)nc1-c1cccs1 — 9.7-fold higher, 870 nM
- CCCCc1ccc(C(=O)Nc2ccc3nc(N4CCN(C)CC4)cc(C)c3c2)cc1 — 12-fold higher, 1100 nM
- COc1ccccc1CCNc1nc(C)cc(N[C@@H](CC(C)C)C(=O)NCc2cccs2)n1 — 8.8-fold higher, 790 nM
- CC(O)c1cccc(-c2ccc(Nc3ccnc4cc(-c5nccs5)ccc34)cc2)c1 (configuration not stated) — 11-fold higher, 1010 nM
- CCNc1cc(C(=O)N[C@@H](Cc2ccccc2Cl)[C@H](O)CNC2CCCCC2)cc(N2CCCCS2(=O)=O)c1 — 8.9-fold higher, 800 nM
- Cn1nccc1C(=O)NCCNCc1cccc(-c2ccc(-c3nc4ccc(C(F)(F)F)cc4[nH]3)cc2)c1 — within 1.5-fold, 120 nM
- O=C(NC1CCN(c2ccnc3cc(Cl)ccc23)C1)c1cccc(F)c1 (configuration not stated) — 2-fold higher, 180 nM
- CCOC(=O)c1ccc(N2CCN(c3cc(C)ccc3C)CC2)c(NC(=O)Nc2ccc(Cl)c(Cl)c2)c1 — 7.9-fold higher, 710 nM

With CCOc1ccc2nccc([C@@H](O)[C@@H]3C[C@@H]4CCN3C[C@@H]4CC)c2c1 the IC50 was 110 nM and 610 nM.

From PubChem BioAssay AID2305 (GlaxoSmithKline (GSK), 2010)
